Assay [1] deals with HeLa cells. The assay is described as follows: [3H]Adenosine uptake functional cellular assay. Type of assay: cell-based. The following applies: Homo sapiens, HeLa, accumulation of [3H]adenosine into HeLa cells; compound range 10 μM to […]; read-out: Adenosine uptake inhibition IC50. In short, it runs like this:
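Inhibition of adenosine uptake was measured in HeLa cells (ATCC CCL-2) by following accumulation of tritiated adenosine. Cells were kept overnight at 37° C. with 5% (v/v) CO2, then switched to 40 μL HBSS plus 5% (v/v) FBS. 20 μL of 500 nM [3H]adenosine was added, and uptake was counted on a Topcount NXT reader.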

For assay [2], the target named is T1, BTK enzyme (recombinant full-length BTK, hBTK) (Homo sapiens, UniProt Q06187).
T1 construct: recombinant protein from baculovirus-transfected Sf9 cells: full-length BTK, 6HIS-tag cleaved; 6HIS (cleaved yes); made in house; host or cells: baculovirus-transfected Sf9 cells
T1 sequence (Q06187 whole entry): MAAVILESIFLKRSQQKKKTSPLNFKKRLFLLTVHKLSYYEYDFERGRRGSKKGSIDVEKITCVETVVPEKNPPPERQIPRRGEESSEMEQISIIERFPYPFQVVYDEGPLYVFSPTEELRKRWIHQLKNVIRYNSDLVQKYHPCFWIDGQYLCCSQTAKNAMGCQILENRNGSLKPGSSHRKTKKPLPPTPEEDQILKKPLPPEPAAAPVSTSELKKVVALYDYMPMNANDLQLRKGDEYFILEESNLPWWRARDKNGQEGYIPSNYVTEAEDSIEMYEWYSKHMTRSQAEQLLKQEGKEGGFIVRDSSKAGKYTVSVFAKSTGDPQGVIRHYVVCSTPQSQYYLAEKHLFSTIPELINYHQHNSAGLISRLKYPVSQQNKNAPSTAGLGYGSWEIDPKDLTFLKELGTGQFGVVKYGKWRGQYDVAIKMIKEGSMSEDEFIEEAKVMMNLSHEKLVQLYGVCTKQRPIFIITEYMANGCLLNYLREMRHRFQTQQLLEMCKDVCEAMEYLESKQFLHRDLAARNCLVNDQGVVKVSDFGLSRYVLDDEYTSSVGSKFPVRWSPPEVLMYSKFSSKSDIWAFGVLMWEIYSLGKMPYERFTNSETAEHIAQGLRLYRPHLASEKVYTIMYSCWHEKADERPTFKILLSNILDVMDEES
The assay is described as follows: BTK enzyme activity assay, LANCE TR-FRET. Type of assay: biochemical. The note with it: 50 pM hBTK, 2 μM biotin-A5-peptide, 25 μM ATP; 60 min compound & enzyme incubation; read-out: IC50 BTK activity value. A general note: In TR-FRET formats the signal depends on donor and acceptor labels being close together.

For the compound `Cn1nc(NC(=O)c2cc(OC3CC3)c(-c3nc([C@@H]4CC[C@H]5CCC(=O)N5C4)n4c(Cl)cnc(N)c34)cc2F)cc1C(F)(F)F` [Example 150, 4-{8-amino-5-chloro-3-[(6R,8aS)-3-oxooctahydroindolizin-6-yl]imidazo[1,5-a]pyrazin-1-yl}-5-(cyclopropyloxy)-2-fluoro-N-[1-methyl-5-(trifluoromethyl)-1H-pyrazol-3-yl]benzamide], the figures for the IC50 in assay [1] and in assay [2] were 2300 nM and 1.8 nM, respectively.
For the compound `CCOc1cc(C(=O)Nc2cc(C(F)(F)F)ccn2)c(F)cc1-c1nc([C@@H]2CC[C@H]3CCC(=O)N3C2)n2ccnc(N)c12` [Example 151, 4-{8-amino-3-[(6R,8aS)-3-oxooctahydroindolizin-6-yl]imidazo[1,5-a]pyrazin-1-yl}-5-ethoxy-2-fluoro-N-[4-(trifluoromethyl)pyridin-2-yl]benzamide], the 50% inhibitory concentration (IC50) in assay [1] worked out at 1120 nM; in assay [2], 0.75 nM.
On the same counts, the results for `CCOc1cc(C(=O)Nc2cc(C(F)(F)F)n(C)n2)c(F)cc1-c1nc([C@@H]2CC[C@H]3CCC(=O)N3C2)n2ccnc(N)c12` [Example 152, 4-{8-amino-3-[(6R,8aS)-3-oxooctahydroindolizin-6-yl]imidazo[1,5-a]pyrazin-1-yl}-5-ethoxy-2-fluoro-N-[1-methyl-5-(trifluoromethyl)-1H-pyrazol-3-yl]benzamide] are 1890 nM and 1.3 nM.
Take `Nc1ncc(Cl)n2c([C@@H]3CC[C@H]4CCC(=O)N4C3)nc(-c3ccc(C(=O)Nc4cc(C(F)(F)F)ccn4)cc3)c12` [Example 153, 4-{8-amino-5-chloro-3-[(6R,8aS)-3-oxooctahydroindolizin-6-yl]imidazo[1,5-a]pyrazin-1-yl}-N-[4-(trifluoromethyl)pyridin-2-yl]benzamide]: the half-inhibitory concentration (IC50) in assay [1] came to 501 nM; in assay [2] it was 0.16 nM.
On the same counts, the results for `CC(=O)Oc1cc(C(=O)Nc2cc(C(F)(F)F)ccn2)ccc1-c1nc([C@@H]2CC[C@H]3CCC(=O)N3C2)n2ccnc(N)c12` [Example 155, 2-{8-amino-3-[(6R,8aS)-3-oxooctahydroindolizin-6-yl]imidazo[1,5-a]pyrazin-1-yl}-5-{[4-(trifluoromethyl)pyridin-2-yl]carbamoyl}phenyl acetate] are 1530 nM and 3.9 nM.
`CC(=O)Nc1nccn2c([C@@H]3CC[C@H]4CCC(=O)N4C3)nc(-c3ccc(C(=O)Nc4cc(C(F)(F)F)ccn4)cc3O)c12` [Example 156, 4-{8-(acetylamino)-3-[(6R,8aS)-3-oxooctahydroindolizin-6-yl]imidazo[1,5-a]pyrazin-1-yl}-3-hydroxy-N-[4-(trifluoromethyl)pyridin-2-yl]benzamide]: the IC50 in assay [1] came out at 1750 nM; in assay [2], 4.4 nM.
On the same counts, the results for `COCCN(C(=O)c1ccc(-c2nc([C@@H]3CC[C@H]4CCC(=O)N4C3)n3ccnc(N)c23)c(O)c1)c1cc(C(F)(F)F)ccn1` [Example 157, 4-{8-amino-3-[(6R,8aS)-3-oxooctahydroindolizin-6-yl]imidazo[1,5-a]pyrazin-1-yl}-3-hydroxy-N-(2-methoxyethyl)-N-[4-(trifluoromethyl)pyridin-2-yl]benzamide] are 1780 nM and 292 nM.
On the same counts, the results for `CCOc1cc(C(=O)Nc2ncc(C)s2)ccc1-c1nc([C@@H]2CC[C@H]3CCC(=O)N3C2)n2c(Cl)cnc(N)c12` [Example 158, 4-{8-amino-5-chloro-3-[(6R,8aS)-3-oxooctahydroindolizin-6-yl]imidazo[1,5-a]pyrazin-1-yl}-3-ethoxy-N-(5-methyl-1,3-thiazol-2-yl)benzamide] are 2070 nM and 0.45 nM.
On the same counts, the results for `CCOc1cc(C(=O)Nc2ncc(C)s2)ccc1-c1nc([C@@H]2CC[C@H]3CCC(=O)N3C2)n2ccnc(N)c12` [Example 159, 4-{8-amino-3-[(6R,8aS)-3-oxooctahydroindolizin-6-yl]imidazo[1,5-a]pyrazin-1-yl}-3-ethoxy-N-(5-methyl-1,3-thiazol-2-yl)benzamide] are 1220 nM and 0.63 nM.

By IC50 is commonly meant the concentration at which inhibition is half-maximal.

Values taken from patent publication US20140206681A1, “BTK INHIBITORS” (priority 2013, published 2014).
